Source: PubChem BioAssay (NCI)
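Each compound was tested at five concentrations against cells in 96-well plates for 48 hours. GI50 marks 50% less growth. TGI is the concentration that stops growth completely.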

What was measured:
Test in all cases: NCI anticancer screen, dose series, 48 h
MDA-MB-231 breast = system: MDA-MB-231 breast
SF-295 CNS = system: SF-295 CNS
UO-31 renal = system: UO-31 renal
UACC-257 melanoma = system: UACC-257 melanoma
COLO 205 colon = system: COLO 205 colon
OVCAR-3 ovarian = system: OVCAR-3 ovarian
SF-268 CNS = system: SF-268 CNS
SW-620 colon = system: SW-620 colon
CCRF-CEM leukemia = system: CCRF-CEM leukemia
IGROV1 ovarian = system: IGROV1 ovarian
RPMI-8226 leukemia = system: RPMI-8226 leukemia
SF-539 CNS = system: SF-539 CNS
SK-OV-3 ovarian = system: SK-OV-3 ovarian
NCI-H460 lung = system: NCI-H460 lung
OVCAR-5 ovarian = system: OVCAR-5 ovarian
SK-MEL-28 melanoma = system: SK-MEL-28 melanoma
DU-145 prostate = system: DU-145 prostate
EKVX NSCLC = system: EKVX NSCLC
HL-60(TB) leukemia = system: HL-60(TB) leukemia
SK-MEL-5 melanoma = system: SK-MEL-5 melanoma
NCI-H23 lung = system: NCI-H23 lung
RXF 393 renal = system: RXF 393 renal
LOX IMVI melanoma = system: LOX IMVI melanoma
T-47D breast = system: T-47D breast
MOLT-4 leukemia = system: MOLT-4 leukemia
786-0 renal = system: 786-0 renal
HCT-15 colon = system: HCT-15 colon
KM12 colon = system: KM12 colon
MDA-MB-435 = system: MDA-MB-435
PC-3 prostate = system: PC-3 prostate
NCI/ADR-RES ovarian = system: NCI/ADR-RES ovarian
SNB-75 CNS = system: SNB-75 CNS
NCI-H522 lung = system: NCI-H522 lung
A549 NSCLC = system: A549 NSCLC
MALME-3M melanoma = system: MALME-3M melanoma
A498 renal = system: A498 renal
HCC-2998 colon = system: HCC-2998 colon
SK-MEL-2 melanoma = system: SK-MEL-2 melanoma
SR leukemia = system: SR leukemia
TK-10 renal = system: TK-10 renal
SN12C renal = system: SN12C renal
OVCAR-8 ovarian = system: OVCAR-8 ovarian
NCI-H226 lung = system: NCI-H226 lung
OVCAR-4 ovarian = system: OVCAR-4 ovarian
MCF7 breast = system: MCF7 breast
HS 578T breast = system: HS 578T breast
U251 CNS = system: U251 CNS
HT29 colon = system: HT29 colon
CAKI-1 renal = system: CAKI-1 renal
BT-549 breast = system: BT-549 breast
M14 melanoma = system: M14 melanoma
HCT-116 colon = system: HCT-116 colon
HOP-92 NSCLC = system: HOP-92 NSCLC
UACC-62 melanoma = system: UACC-62 melanoma
ACHN renal = system: ACHN renal
HOP-62 NSCLC = system: HOP-62 NSCLC
SNB-19 CNS = system: SNB-19 CNS
K-562 leukemia = system: K-562 leukemia

O=S(=O)(Nc1cc(Sc2cccc3cccnc23)c(O)c2ccccc12)c1ccc(F)cc1
GI50 (MDA-MB-231 breast): 0.837 µM | TGI (MDA-MB-231 breast): 8.9 µM | GI50 (SF-295 CNS): 3.34 µM | TGI (SF-295 CNS): 12.8 µM | GI50 (UO-31 renal): 1.09 µM | TGI (UO-31 renal): 4.75 µM | GI50 (UACC-257 melanoma): 1.75 µM | TGI (UACC-257 melanoma): 4.56 µM | GI50 (COLO 205 colon): 1.69 µM | TGI (COLO 205 colon): 3.51 µM | GI50 (OVCAR-3 ovarian): 0.869 µM | TGI (OVCAR-3 ovarian): 3.08 µM | GI50 (SF-268 CNS): 1.89 µM | TGI (SF-268 CNS): 11.9 µM | GI50 (SW-620 colon): 1.41 µM | TGI (SW-620 colon): 3.86 µM | GI50 (CCRF-CEM leukemia): 0.544 µM | TGI (CCRF-CEM leukemia): 11.9 µM | GI50 (IGROV1 ovarian): 1.06 µM | TGI (IGROV1 ovarian): 4.2 µM | GI50 (RPMI-8226 leukemia): 2.09 µM | TGI (RPMI-8226 leukemia): 7.36 µM | GI50 (SF-539 CNS): 2.04 µM | TGI (SF-539 CNS): 5.99 µM | GI50 (SK-OV-3 ovarian): 3.23 µM | TGI (SK-OV-3 ovarian): 13.4 µM | GI50 (NCI-H460 lung): 0.59 µM | TGI (NCI-H460 lung): 11 µM | GI50 (OVCAR-5 ovarian): 2.63 µM | TGI (OVCAR-5 ovarian): 10.6 µM | GI50 (SK-MEL-28 melanoma): 1.56 µM | TGI (SK-MEL-28 melanoma): 4.16 µM | GI50 (DU-145 prostate): 1.27 µM | TGI (DU-145 prostate): 3.81 µM | GI50 (EKVX NSCLC): 1.41 µM | TGI (EKVX NSCLC): 6.5 µM | GI50 (HL-60(TB) leukemia): 2.12 µM | TGI (HL-60(TB) leukemia): 5.88 µM | GI50 (SK-MEL-5 melanoma): 1.66 µM | TGI (SK-MEL-5 melanoma): 3.16 µM | GI50 (NCI-H23 lung): 1.46 µM | TGI (NCI-H23 lung): 4.32 µM | GI50 (RXF 393 renal): 1.97 µM | TGI (RXF 393 renal): 5.43 µM | GI50 (LOX IMVI melanoma): 0.624 µM | TGI (LOX IMVI melanoma): 2.82 µM | GI50 (T-47D breast): 1.75 µM | TGI (T-47D breast): 4.67 µM | GI50 (MOLT-4 leukemia): 0.432 µM | TGI (MOLT-4 leukemia): 3.21 µM | GI50 (786-0 renal): 1.19 µM | TGI (786-0 renal): 6.85 µM | GI50 (HCT-15 colon): 0.461 µM | TGI (HCT-15 colon): 3.16 µM | GI50 (KM12 colon): 2.48 µM | TGI (KM12 colon): 14.2 µM | GI50 (MDA-MB-435): 2.27 µM | TGI (MDA-MB-435): 8.66 µM | GI50 (PC-3 prostate): 0.74 µM | TGI (PC-3 prostate): 12.1 µM | GI50 (NCI/ADR-RES ovarian): 0.731 µM | TGI (NCI/ADR-RES ovarian): 5.62 µM | GI50 (SNB-75 CNS): 3.68 µM | TGI (SNB-75 CNS): 15.2 µM | GI50 (NCI-H522 lung): 1.4 µM | TGI (NCI-H522 lung): 3.9 µM | GI50 (A549 NSCLC): 0.538 µM | TGI (A549 NSCLC): 3.17 µM | GI50 (MALME-3M melanoma): 1.98 µM | TGI (MALME-3M melanoma): 4.94 µM | GI50 (A498 renal): 3.96 µM | TGI (A498 renal): 24.1 µM | GI50 (HCC-2998 colon): 4.8 µM | TGI (HCC-2998 colon): 15.6 µM | GI50 (SK-MEL-2 melanoma): 1.84 µM | TGI (SK-MEL-2 melanoma): 7.52 µM | GI50 (SR leukemia): 0.465 µM | TGI (SR leukemia): 7.63 µM | GI50 (TK-10 renal): 2.81 µM | TGI (TK-10 renal): 11.5 µM | GI50 (SN12C renal): 0.97 µM | TGI (SN12C renal): 3.61 µM | GI50 (OVCAR-8 ovarian): 0.645 µM | TGI (OVCAR-8 ovarian): 10.3 µM | GI50 (NCI-H226 lung): 3.24 µM | TGI (NCI-H226 lung): 19 µM | GI50 (OVCAR-4 ovarian): 0.504 µM | TGI (OVCAR-4 ovarian): 1.8 µM | GI50 (MCF7 breast): 1.05 µM | TGI (MCF7 breast): 3.21 µM | GI50 (HS 578T breast): 4.44 µM | TGI (HS 578T breast): 45.7 µM | GI50 (U251 CNS): 0.839 µM | TGI (U251 CNS): 10.4 µM | GI50 (HT29 colon): 1.84 µM | TGI (HT29 colon): 6.59 µM | GI50 (CAKI-1 renal): 2.79 µM | GI50 (BT-549 breast): 3.04 µM | TGI (BT-549 breast): 13.7 µM | GI50 (M14 melanoma): 1.27 µM | TGI (M14 melanoma): 3.53 µM | GI50 (HCT-116 colon): 0.604 µM | TGI (HCT-116 colon): 2.13 µM | GI50 (HOP-92 NSCLC): 2.02 µM | TGI (HOP-92 NSCLC): 7.08 µM | GI50 (UACC-62 melanoma): 1.85 µM | TGI (UACC-62 melanoma): 4.39 µM | GI50 (ACHN renal): 1.34 µM | TGI (ACHN renal): 7.78 µM | GI50 (HOP-62 NSCLC): 2.05 µM | TGI (HOP-62 NSCLC): 17 µM | GI50 (SNB-19 CNS): 2.55 µM | TGI (SNB-19 CNS): 17.1 µM | GI50 (K-562 leukemia): 1.37 µM | TGI (K-562 leukemia): 9.52 µM
